The values below come from PMC11151152, “Chemoproteomics enables identification of coatomer subunit zeta‐1 targeted by a small molecule for enterovirus A71 inhibition” (MedComm, 2024).

Structures are written as SMILES.

For assay [1], the target named is T1, COPZ1 (endogenous, in EV-A71-infected RD cells) (Homo sapiens, UniProt P61923).
T1 sequence (P61923 1-177): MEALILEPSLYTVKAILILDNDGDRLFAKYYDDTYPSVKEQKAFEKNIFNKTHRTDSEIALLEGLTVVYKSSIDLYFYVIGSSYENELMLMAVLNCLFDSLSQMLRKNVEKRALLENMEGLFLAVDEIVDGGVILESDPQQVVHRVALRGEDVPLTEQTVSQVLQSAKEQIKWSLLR
The experiment in a line: competition against MPA-P photoaffinity labelling, pulldown / western blot. Type of assay: cell-based. The following applies: competitor of photoaffinity probe MPA-P. A general note: A western blot detects proteins with antibodies after separation by electrophoresis.

Assay [2] has as its target T2, COPZ1^7-150 (truncated human coatomer subunit zeta-1) (Homo sapiens, UniProt P61923).
T2 construct: E. coli BL21(DE3), pET-28a(+)
T2 sequence (P61923 7-150): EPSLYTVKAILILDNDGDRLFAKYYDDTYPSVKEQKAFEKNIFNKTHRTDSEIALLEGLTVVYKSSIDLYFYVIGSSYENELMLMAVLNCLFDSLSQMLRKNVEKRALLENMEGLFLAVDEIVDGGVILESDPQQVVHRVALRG
Put plainly: SPR, CM5 chip, COPZ1 immobilised. It is filed as binding.

Assay [3] concerns the target T2, COPZ1^7-150 (truncated human coatomer subunit zeta-1). The experiment in a line: fluorescence thermal shift assay (Sypro Orange). Type of assay: binding. The following applies: 10 µM compound; 4 µM protein; 20 mM HEPES, 150 mM NaCl, pH 7.5.
Assay [4] deals with T1, COPZ1 (endogenous, in EV-A71-infected RD cells). Put plainly: photoaffinity labelling in cells, pulldown / western blot. To be noted: covalent (diazirine photo-crosslinking, 365 nm). It is filed as cell-based.

As to `O=C(c1ccc(C(F)(F)F)cc1O)c1[nH]c(Cl)c(Cl)c1-n1c(C(=O)c2ccc(C(F)(F)F)cc2O)cc(Cl)c1Cl` [MPA-CF3], the “competition against MPA-P photoaffinity labelling, pulldown / western blot” value in assay [1] is recorded as “implying that MPA‐CF3 specifically binds to COPZ1 in intact cells”. Moreover, the Kd in assay [2] turned out to be 24 nM. The ΔT m in assay [3] was −3.6 °C.
For the compound `C#CCCC1(CCSc2c(Cl)cc(C(=O)c3ccc(C(F)(F)F)cc3O)n2-c2c(C(=O)c3ccc(C(F)(F)F)cc3O)[nH]c(Cl)c2Cl)N=N1` [MPA-P], in assay [4], the “photoaffinity labelling in cells, pulldown / western blot” value is given as “labeling intensity of COPZ1 by MPA‐P in EV‐A71‐infected RD cells”.

A word on the Kd: it is the concentration at which binding is half-saturated. Read a high Kd as a looser complex.
